Entries after “also recorded” stand apart in the source; their conditions may differ. Read-outs that look alike come from different tables or passages of the source.
Columns and labels:
BS-C-1 cells = assay: fluorescence microscopy and live imaging of BS-C-1 cells; type: cell-based, monkey; settings: BS-C-1 cells; 1A at 40 μM for 4 hours
Description: We investigated the phenotype of mammalian cells (BS-C-I) treated with the compounds of group III. […] Our examination of the distribution of microtubules, actin, and chromatin in fixed cells by fluorescence microscopy allowed us to divide the small molecules into three classes.
We then asked whether the chromosomes surrounding the monoastral microtubule array maintain microtubule attachment.

microtubules [1] = assay: competition with fluorescently labeled taxol; type: binding; settings: oregon green labeled taxol, fluorescence polarization
Description: (§1) Since taxol and discodermolide prevent cold depolymerization of microtubules (Hung et al., Chem. Biol. 3:287, 1996), we tested whether synstab A-treatment of cells would cause a similar effect. […] This mutually exclusive binding is consistent with the observed taxol-like effects of synstab A on cells and on purified microtubules.
Three different assays were used to confirm microtubule-stabilizing effects in the in vitro tubulin polymerization assay by repeating the above experiment. In addition, three independent experiment assessments were carried out. 1) In vitro competition experiments with fluorescence-labeled taxol. […] 2) In vivo incubation of BSCI-cells (a monkey epithelial cell line) with 40 μM 1A for four hours. In brief, BSCI cells were seeded on glass coverslips and cultured overnight. […] 3) treatment of cells with 1A resulted index by the phosphonucleolin (TG-3) cytoblot as described above as measured visually.

[2] = tested on: p3TPLux TGFβ-responsive reporter in 6F mink lung cells; assay: luciferase assay, stably transfected p3TPLux; type: cell-based; settings: for synergy with TGFβ: 400 pM TGFβ1; for reporter gene expression: stably transfected reporter
Experimental: FIG. 19 graphs the dose-response of transcriptional activation of compounds 1a and 2 in the presence (*) or absence (•) of 400 pM TGFβ1. 20,000 6F mink lung cells ( ) were seeded in 384 well plates, allowed to attach for 16 hours in 10% mink medium, and were treated with the indicated concentrations of 1a or 2.
We screened more than 16,000 chemical compounds to identify those that specifically activated expression of a reporter gene (luciferase) under the control of TGFβ-responsive elements in stably transfected mammalian cells (mink lung epithelial cells). […] Given the structural similarity of compounds 1a-c, we expected that all three were operating through a common mechanism. We therefore continued testing on only one, compound 1a, as representative of the group.

[3] = tested on: control reporter responsive to NFκB; settings: transiently transfected
Experimental: LUCIFERASE ASSAYS: Our transient transfection luciferase assay was described previously by us (Stockwell et al., Chem Biol 5:385, 1998). Briefly, 100,000 Mv1Lu mink lung epithelial cells were transiently transfected in 12-well dishes with 400 ng p3TPLux or pNFkB-Lux, with or without 50 ng pFC-MEKK, in 300 μL minimal essential medium with non-essential amino acids. The DEAE-dextran/chloroquine/DMSO methods was used for transfection (Stockwell et al., Chem Biol 6:71, 1999). After cell lysis in 120 μL lysis buffer, a Beckman LS 6500 liquid scintillation counter was used in single photon mode to quantitate luminescence. For detection of luciferase activity in 6F cells (including the primary screen), 20,000 6F cells were seeded in 50 μL of 10% mink medium in each well of a white 384-well plate (Nalge Nune International; Naperville, Ill.; cat#164610) using a Multidrop 384 liquid dispenser (Lab Systems; Helsinki, Finland). […] After incubating the cells for five minutes on ice, 20 μL of ATP/luciferin solution was added (25 mM glycylglycine pH 7.8, 15 mM MgSO4, 4 mM EGTA, 6.25 mM K2HPO4 (Sigma; cat#P5504) pH 7.8, 5 mM DTT, 75 μM D-luciferin (Sigma, cat# L-9504, 2 mM ATP (Sigma; cat#A-7699)). Light output was immediately measured with an Analyst 384-well platereader (LJL), with 0.5 second counting time per well.

[4] = tested on: transiently transfected TGFβ-responsive reporter; assay: transient transfection luciferase assay, p3TPLux; type: cell-based, mink
Experimental: LUCIFERASE ASSAYS: Our transient transfection luciferase assay was described previously by us (Stockwell et al., Chem Biol 5:385, 1998). Briefly, 100,000 Mv1Lu mink lung epithelial cells were transiently transfected in 12-well dishes with 400 ng p3TPLux or pNFkB-Lux, with or without 50 ng pFC-MEKK, in 300 μL minimal essential medium with non-essential amino acids. The DEAE-dextran/chloroquine/DMSO methods was used for transfection (Stockwell et al., Chem Biol 6:71, 1999). After cell lysis in 120 μL lysis buffer, a Beckman LS 6500 liquid scintillation counter was used in single photon mode to quantitate luminescence. For detection of luciferase activity in 6F cells (including the primary screen), 20,000 6F cells were seeded in 50 μL of 10% mink medium in each well of a white 384-well plate (Nalge Nune International; Naperville, Ill.; cat#164610) using a Multidrop 384 liquid dispenser (Lab Systems; Helsinki, Finland). After 16 hours, medium was removed using a 24 channel wand (V&P Scientific, Inc.; San Diego, Calif.; cat#VP 186L), the cells were washed with 75 μL of 0.2% mink medium (containing 0.2% FBS), and reagents were added in 40 μL of 0.2% medium. For the primary screen, reagents were added by pin transfer using 384 polypropylene pin arrays (Matrix Technologies; Hudson, N.H.). After 24 hours, the cells were cooled on ice and washed twice with 75 μL Hanks Balanced Salt Solution (HBSS; GibcoBRL; cat#24020-117). Then 20 μL lysis buffer (25 mM glycylglycine (Sigma; cat#E-0396), 1% Triton X-100 (Sigma; cat#T-9284), 1 mM dithiothreitol (DTT; Sigma; cat#D-5545), 1 mM phenylmethylsulfonyl fluoride (PMSF; Sigma; cat#P-7626)) was added to each well with a Multidrop. After incubating the cells for five minutes on ice, 20 μL of ATP/luciferin solution was added (25 mM glycylglycine pH 7.8, 15 mM MgSO4, 4 mM EGTA, 6.25 mM K2HPO4 (Sigma; cat#P5504) pH 7.8, 5 mM DTT, 75 μM D-luciferin (Sigma, cat# L-9504, 2 mM ATP (Sigma; cat#A-7699)). Light output was immediately measured with an Analyst 384-well platereader (LJL), with 0.5 second counting time per well.

[5] = tested on: mink lung epithelial cells; assay: BrdU cytoblot assay for S-phase progression; type: cell-based
Description: BRDU CYTOBLOT ASSAY: The BrdU cytoblot assay for S-phase progression was described previously by Stockwell et al. (Chem. Biol. 6:71, 1999; see also, U.S. Patent Application Ser. No. 60/094,305, incorporated herein by reference).
Compounds that mimic TGFβ activity would be expected to be capable of inducing cell cycle arrest or apoptosis, and in particular to block DNA replication, in responding cells. We therefore used an S-phase progression cytoblot assay to test whether our compounds could inhibit 5-bromodeoxyuridine (BrdU) incorporation into mink epithelial cells. […] Both compounds were therefore classified as true TGFβ mimics.

[6] = tested on: S. cerevisiae strain BY4741
Experimental: TRANSCRIPTIONAL PROFILING: We performed transcriptional profiling on yeast cells according to known techniques. […] We therefore set thresholds of 0.5 fold and 2.0 fold for transcriptional repression and transcriptional activation, respectively, in our experimental comparisons of untreated cells and cells treated with test compounds.
Briefly, S. cerevisiae strain BY4741 (haploid) was streaked on a YPD plate, grown for 3 days at 30° C., and used to inoculate a 50 mL overnight culture of YPD. This culture was diluted into pre-warmed YPD such that A600=0.04 and allowed to grow until A600=0.47. The culture was split into pre-warmed flasks, with 50 mL in each of three flasks and 150 mL in a fourth flask. […] The cultures were centrifuged at 2500 g at room temperature for five minutes and the pelle frozen in liquid nitrogen. Total RNA was purified from each culture by hot acidic phenol/chloroform extraction and ethanol precipitation. Poly-A RNA wad purified with a Qiagen Oligotex mRNA Midi Kit (Qiagen; Valencia, Calif.; cat#70042). Fluorescently-labeled probe was prepared from […] poly-A mRNA and applied to glass slides that had been printed with 6240 yeast ORFs (James Hardwick, Jeffrey Tong, and Stuart L. Schreiber, unpublished results). The microarray was scanned with an Array Works scanner and the results were analyzed with Gene Spring software.

[7] = UV spectral shift binding assay with 1a; settings: UV 240-310 nm
Experimental: (§2) UV SPECTRAL SHIFT BINDING ASSAY: A quartz cuvette with 1 mL deionized, distilled water was used as a blank on a Cary 1E UV-visible spectrophotomer. 1a or 2 was diluted to a final concentration of 15 μM or 20 μM, respectively, and the UV spectrum from 240 nm to 320 nm was measured. […] Upon addition of certain transition metals (Table 1), this peak shifted such that the new λmax was 273 nm and 310 nm, for 1a and 2, respectively. […] For the calculation of correlation coefficients, all values less than 7.5 μM were taken to be 7.5 μM, all values greater than 1000 μM were taken to be 1000 μm and all values less than 10 μM were taken to be 10 μM.

[8] = UV spectral shift binding assay with 2; settings: UV 240-310 nm
Experimental: as §2

phosphonucleolin = phosphonucleolin cytoblot, suppression of nocodazole-induced mitotic arrest; type: cell-based, human; settings: A549 cells; pretreated 8 hour, then 250 nM nocodazole 12 hours
Experimental: FIG. 10. The ability of anti-proliferative agents such as juglone to suppress the effects of nocodazole-induced mitotic arrest can be detected in a cytoblot. […] (b) A549 human lung carcinoma cells were seeded at a density of 4000 cells in 40 μL of DMEM+ in each well of a white, opaque 384-well plate and incubated overnight at 37° C. with 5% CO2. Cells were either untreated or pretreated with juglone at the indicated concentrations for 8 hour. Subsequently, nocodazole at a final concentration of 250 nM was added to all wells in a final volume of 50 μL and the cells incubated for a further 12 hours. A phosphonucleolin cytoblot was performed. […] A 4 mm scale bar is shown.
The treatment of cells with any small molecule that arrests cells outside of mitosis will suppress the ability of nocodazole to arrest cells in mitosis. […] It was hypothesized that inhibition of Pin1, which is an essential, highly conserved PPIase required for proper mitotic division in Xenopus and yeast, would prevent entry into mitosis and consequently prevent accumulation of phosphonucleolin (FIG. 10a).

microtubules [9] = assay: cold depolymerization of microtubules in cells; type: cell-based; settings: 4° C., 0.5 h, taxol 10 μM, 4 h, synstab A 25 μM
Description: as §1

TG-3 staining = assay: fluorescence-activated cell sorting and TG-3 immunoblotting; type: cell-based; settings: concentrations that do not affect viability

SMILES | microtubule, spindle and chromosome phenotype (BS-C-1 cells) | synergy with TGFβ [2] | reporter gene expression [2] | activation of NFκB-responsive control reporter [3] | activation of transiently versus stably transfected TGFβ-responsive reporter [4] | BrdU incorporation [5] | also measured
CN(c1ccc2cccc(O)c2n1)c1ccc2cccc(O)c2n1 [Compound 1a, 2,2′-(methylimino)bis-8(quinolinol)] | showed bundling of interphasic microtubules and aberrant mitotic spindles with misaligned chromosomes | synergistic with TGFβ | dose-dependent increase in reporter gene expression | Neither compound activated | less effective | inhibited BrdU incorporation; also recorded: inhibition of BrdU incorporation | competition for binding of fluorescently labeled taxol (microtubules [1]): compete off bound labeled taxol; […] IN PRESENCE OF COMPOUND […] IN ABSENCE OF COMPOUND ([6]; gene YAL045C (ARN1), Multi-drug resistance pump, repressed genes): 0.49; […] IN PRESENCE OF COMPOUND […] IN ABSENCE OF COMPOUND ([6]; gene YBL005WA, TyA transposon, activated genes): 2.2; […] IN PRESENCE OF COMPOUND […] IN ABSENCE OF COMPOUND ([6]; gene YHL040C (ARN1), multidrug resistance pump, activated genes): 2.0; binding of 1a to metals (shift in UV absorbance maximum) [7]: binds strongly to Zn^2+, Fe^2+, Cu^2+, Cu^+, and Al^3+, and less well to Mn^2+, Co^2+, and Ni^2+
O=C(NN=Cc1ccccc1O)c1ccc(O)cc1 [Compound 2, Benzoic acid, 4-hydroxy, [(2-hydroxyphenyl)methylene]hydrazide] |  | synergistic with TGFβ | dose-dependent increase in reporter gene expression | Neither compound activated | less effective | inhibited BrdU incorporation; also recorded: inhibition of BrdU incorporation | synergy with metals in reporter activation [2]: synergized strongly with both Cu^+ and Cu^2+ but not with other metals; activity in screen (TGFβ-responsive luciferase reporter) ([2]; primary screen of more than 16,000 compounds): showed activity in our screen; effect on gene expression in yeast cells [6]: no detectable effect on gene expression in yeast cells; binding of 2 to metals (shift in UV absorbance maximum) [8]: binds well to Fe^3+, Cu^2+, Cu^+, and CO^2+, and also shows some binding to Ni^2+
O=C1C=CC(=O)c2c(O)cccc21 [juglone] |  |  |  |  |  |  | concentrations that prevent accumulation of phosphonucleolin (phosphonucleolin): greater than 25 microM
CC(=O)O[C@H]1C(=O)[C@@]2(C)[C@H]([C@H](OC(=O)c3ccccc3)[C@]3(O)C[C@H](OC(=O)[C@H](O)[C@@H](NC(=O)c4ccccc4)c4ccccc4)C(C)=C1C3(C)C)[C@]1(OC(C)=O)CO[C@@H]1C[C@@H]2O [taxol] | less pronounced than that induced by synstab A |  |  |  |  |  | protection from cold depolymerization (microtubules [9]): noticeably stabilized microtubules; TG-3 reactivity of total cell extracts (TG-3 staining): increased TG-3 reactivity

— patent US20080311589A1, “METHOD OF HIGH-THROUGHPUT SCREENING OF MOLECULES AND COMPOUNDS FOR THEIR EFFECTS ON BIOLOGICAL AND CHEMICAL PROCESSES” (priority 1999, published 2008)
